Legend:
[1] = mutagenicity (AMES) tests
Procedure: (§1) Additional studies of D-pinitol's safety and efficacy included mutagenicity (AMES) tests, which were negative. […] In a phase I safety and pharmacokinetic study of D-pinitol in AD subjects, the time to peak plasma levels was about 90 minutes after administration, and the elimination half-life (t1/2) was 10 hours.

[2] = test system: rats; experiment: acute toxicity studies in rats; assay type: in vivo, rat
Procedure: as §1

[3] = phase I safety and pharmacokinetic study in AD subjects; assay type: in vivo, human
Procedure: as §1

[4] = solubility in water; assay type: physicochemical
Excerpt: In some embodiments, the D-pinitol can be a component of a dietary supplement or a medical food (e.g., in combination with an edible oil), or a food for special dietary use. Medical foods are, by definition, formulated to be consumed or administered enterally under the supervision of a physician or other medical professional. The manufacture of medical foods typically is done in compliance with FDA Good Manufacturing Practices (GMP) requirements. The term “food for special dietary use” is defined by 21 C.F.R. §105.3, as applied to food for humans, as meaning • particular (as distinguished from general) uses of food, as follows: • (i) Uses for supplying particular dietary needs which exist by reason of a physical, physiological, pathological or other condition, including but not limited to the conditions of diseases, convalescence, pregnancy, lactation, allergic hypersensitivity to food, underweight, and overweight; • (ii) Uses for supplying particular dietary needs which exist by reason of age, including but not limited to the ages of infancy and childhood; • (iii) Uses for supplementing or fortifying the ordinary or usual diet with any vitamin, mineral, or other dietary property. Any such particular use of a food is a special dietary use, regardless of whether such food also purports to be or is represented for general use. […]

[5] = subjects with insulin resistance, dosed daily with 20 mg/kg for 28 days; cited from earlier work

## CO[C@H]1[C@H](O)[C@@H](O)[C@@H](O)[C@H](O)[C@@H]1O [D-pinitol, 3-O-methyl-D-chiro-inositol]
[1]
  mutagenicity (AMES) tests: negative
[2]
  LD50: > 2000 mg/kg
[3]
  elimination half-life (t1/2): 10 h
[3]; after administration
  time to peak plasma levels: about 90 minutes
[4]
  solubility in water: soluble in water
[5]
  increase in plasma D-pinitol concentration as compared to baseline: 48 fold
